Experiments:
Format in all cases: cell-based
AR 1.0 cells = assay: Potentiation of doxorubicin toxicity: proliferation assay, compound titrated against fixed doxorubicin (sulphorhodamine B); details: Mus musculus, 96 h; with fixed doxorubicin (0.34 mm); four day incubation; read-out: Toxicity with Cytotoxic Agent (IC50 mM)
Method: The EMT6 mouse mammary carcinoma cell line and the MDR resistant subline AR 1.0 were cultured in RPMI 1640 medium containing 10% foetal calf serum and 2 mM glutamine at 37° C. in 5% CO2. Cells were passaged between 1 in 200 and 1 in 2000 in the case of the parental cell line and between 1 in 20 and 1 in 200 in the case of the MDR resistant subline, after trypsinisation (0.25% trypsin, 0.2 gl^−1, EDTA).
(a) Selected compounds of formula (I) were examined for their ability to potentiate the toxicity of doxorubicin in AR 1.0 cells. In initial proliferation assays compounds were titrated against a fixed concentration of doxorubicin ([…]) which alone is non-toxic to AR 1.0 cells. After a four day incubation with doxorubicin proliferation was measured using the colorimetric sulphorhodamine B assay (Skehan et al; J Natl. Cancer Inst. 82 pp 1107-1112 (1990)).

H69/LX4 = assay: Potentiation of toxicity of various cytotoxic agents, potentiation index; details: for Potentiaton Index at RMA Concentration 10 nM: compound 10 nM; for Potentiaton Index at RMA Concentration 30 nM: compound 30 nM
Method: (§1) (b) Cells were cultured for four days with a titration of doxorubicin (0.263 nM-[…]) in the presence of a fixed concentration of each compound. Proliferation was quantified as described by Skehen et al, loc cit. The IC50 (concentration required to reduce proliferation to 50% of the untreated controls) for doxorubicin alone and with each compound were derived and used to calculate the potentiation index (PI):
(§2) The potentiation indices of a selection of compounds using a variety of cell lines and a variety of cytotoxics other than doxorubicin were measured following the protocol described above for doxorubicin, and the results are shown in Table D.

2780AD = assay: as above; details: Taxol, compound 10 nM
Method: as §1, §2

SMILES: COc1cc2c(cc1OC)CN(CCc1ccc(NC(=O)c3cc(F)ccc3NC(=O)c3cnc4ccccc4c3)cc1)CC2 [Compound 33, Quinoline-3-carboxylic acid (2-{4-[2-(6,7-dimethoxy-3,4-dihydro-1H-isoquinolin-2-yl)-ethyl]-phenylcarbamoyl}-4-fluoro-phenyl)-amide]
- IC50 (AR 1.0 cells): 5 nM

SMILES: COc1cc2c(cc1OC)CN(CCc1ccc(NC(=O)c3cc(Cl)ccc3NC(=O)c3cnc4ccccc4c3)cc1)CC2 [Compound 39, Quinoline-3-carboxylic acid (2-{4-[2-(6,7-dimethoxy-3,4-dihydro-1H-isoquinolin-2-yl)-ethyl]-phenylcarbamoyl}-4-chloro-phenyl)-amide]
- IC50 (AR 1.0 cells): 5 nM

SMILES: COc1cc2c(cc1OC)CN(CCc1ccc(NC(=O)c3cc4c(cc3NC(=O)c3cnc5ccccc5c3)OCO4)cc1)CC2 [Compound 35, Quinoline-3-carboxylic acid (6-{4-[2-(6,7-dimethoxy-3,4-dihydro-1H-isoquinolin-2-yl)-ethyl]-phenylcarbamoyl}-benzo[1,3]dioxol-5-yl)-amide]
- IC50 (AR 1.0 cells): 1.4 nM

SMILES: COc1cc2c(cc1OC)CN(CCNC(=O)c1ccccc1NC(=O)c1cc3ccccc3cn1)CC2 [Compound 29, Isoquinoline-3-carboxylic acid {2-[2-(6,7-dimethoxy-3,4-dihydro-1H-isoquinolin-2-yl)-ethylcarbamoyl]-phenyl}-amide]
- IC50 (AR 1.0 cells): 300 nM

SMILES: COc1cc2c(cc1OC)CN(CCNC(=O)c1ccccc1NC(=O)c1ccc3ccccc3n1)CC2 [Compound 28, Quinoline-2-carboxylic acid {2-[2-(6,7-dimethoxy-3,4-dihydro-1H-isoquinolin-2-yl)-ethylcarbamoyl]-phenyl}-amide]
- IC50 (AR 1.0 cells): 550 nM

SMILES: COc1cc2c(cc1OC)CN(CCc1ccc(NC(=O)c3c(C)csc3NC(=O)c3cnc4ccccc4c3)cc1)CC2 [Compound 6, Quinoline-3-carboxylic acid (3-{4-[2-(6,7-dimethoxy-3,4-dihydro-1H-isoquinolin-2-yl)-ethyl]-phenylcarbamoyl}-4-methyl-thiophen-2-yl)-amide]
- Potentiaton Index at RMA Concentration 10 nM (H69/LX4; Taxol): 1
- Potentiaton Index at RMA Concentration 30 nM (H69/LX4; Taxol): 3
- Potentiaton Index at RMA Concentration 50 nM (H69/LX4; Taxol, compound 50 nM): 9

SMILES: COc1cc2c(cc1OC)CN(CCc1ccc(NC(=O)c3ccccc3NC(=O)c3cnc4c(c3)CCCC4)cc1)CC2 [Compound 43, 5,6,7,8-Tetrahydroquinoline-3-carboxylic acid (2-{4-[2-(6,7-dimethoxy-3,4-dihydro-1H-isoquinolin-2-yl)-ethyl]-phenylcarbamoyl}-phenyl)-amide]
- IC50 (AR 1.0 cells): 50 nM

SMILES: COc1cc2c(cc1OC)CN(CCc1ccc(NC(=O)c3sccc3NC(=O)c3cnc4ccccc4c3)cc1)CC2 [Compound 3, Quinoline-3-carboxylic acid (2-{4-[2-(6,7-dimethoxy-3,4-dihydro-1H-isoquinolin-2-yl)-ethyl]-phenylcarbamoyl}-thiophen-3-yl)-amide]
- Potentiaton Index at RMA Concentration 10 nM (H69/LX4; Vincristine): 2
- Potentiaton Index at RMA Concentration 30 nM (H69/LX4; Vincristine): 79
- Potentiaton Index at RMA Concentration 10 nM (2780AD): 18

SMILES: COc1cc2c(cc1OC)CN(Cc1ccc(NC(=O)c3ccccc3NC(=O)c3cnc4ccccc4c3)cc1)CC2 [Compound 45, Quinoline-3-carboxylic acid {2-[4-(6,7-dimethoxy-3,4-dihydro-1H-isoquinolin-2-ylmethyl)-phenylcarbamoyl]-phenyl}-amide]
- IC50 (AR 1.0 cells): 22 nM

SMILES: COc1ccc(CN(C)CCc2ccc(NC(=O)c3ccccc3NC(=O)c3cnc4ccccc4c3)cc2)cc1OC [Compound 7, Quinoline-3-carboxylic acid [2-(4-{2-[(3,4-dimethoxy-benzyl)-methyl-amino]-ethyl}-phenylcarbamoyl)-phenyl]-amide]
- Potentiaton Index at RMA Concentration 10 nM (H69/LX4; Taxol): 2.2

SMILES: COc1cc2c(cc1OC)CN(CCc1ccc(NC(=O)c3ccccc3NC(=O)c3ccc4ccccc4n3)cc1)CC2 [Compound 42, Quinoline-2-carboxylic acid (2-{4-[2-(6,7-dimethoxy-3,4-dihydro-1H-isoquinolin-2-yl)-ethyl]-phenylcarbamoyl}-phenyl)-amide]
- IC50 (AR 1.0 cells): 70 nM

SMILES: COc1cc2c(cc1OC)CN(CCc1ccc(NC(=O)c3ccc(C)cc3NC(=O)c3cnc4ccccc4c3)cc1)CC2 [Compound 38, Quinoline-3-carboxylic acid (2-{4-[2-(6,7-dimethoxy-3,4-dihydro-1H-isoquinolin-2-yl)-ethyl]-phenylcarbamoyl}-5-methyl-phenyl)-amide]
- IC50 (AR 1.0 cells): 5 nM

SMILES: COc1cc2c(cc1OC)CN(CCc1ccc(NC(=O)c3cc(C)ccc3NC(=O)c3cnc4ccccc4c3)cc1)CC2 [Compound 37, Quinoline-3-carboxylic acid (2-{4-[2-(6,7-dimethoxy-3,4-dihydro-1H-isoquinolin-2-yl)-ethyl]-phenylcarbamoyl}-4-methyl-phenyl)-amide]
- IC50 (AR 1.0 cells): 15 nM

SMILES: COc1cc2c(cc1OC)CN(CCc1ccc(NC(=O)c3ccc(N)cc3NC(=O)c3cnc4ccccc4c3)cc1)CC2 [Compound 41, Quinoline-3-carboxylic acid (2-{4-[2-(6,7-dimethoxy-3,4-dihydro-1H-isoquinolin-2-yl)-ethyl]-phenylcarbamoyl}-5-amino-phenyl)-amide]
- IC50 (AR 1.0 cells): 4400 nM

SMILES: COc1cc2c(cc1OC)CN(CCc1ccc(NC(=O)c3cc(OC)c(OC)cc3NC(=O)c3cnc4ccccc4c3)cc1)CC2 [Compound 34, Quinoline-3-carboxylic acid (2-{4-[2-(6,7-dimethoxy-3,4-dihydro-1H-isoquinolin-2-yl)-ethyl]-phenylcarbamoyl}-4,5-dimethoxy-phenyl)-amide]
- IC50 (AR 1.0 cells): 1.8 nM

SMILES: O=C(Nc1ccccc1C(=O)Nc1ccc(CCN2CCc3ccccc3C2)cc1)c1cnc2ccccc2c1 [Compound 44, Quinoline-3-carboxylic acid (2-{4-[2-(3,4-dihydro-1H-isoquinolin-2-yl)-ethyl]-phenylcarbamoyl}-phenyl)-amide]
- IC50 (AR 1.0 cells): 0.35 nM

SMILES: COc1cc2c(cc1OC)CN(CCNC(=O)c1ccccc1NC(=O)c1nccc3ccccc13)CC2 [Compound 27, Isoquinoline-1-carboxylic acid {2-[2-(6,7-dimethoxy-3,4-dihydro-1H-isoquinolin-2-yl)-ethylcarbamoyl]-phenyl}-amide]
- IC50 (AR 1.0 cells): 1000 nM

SMILES: COc1cc2c(cc1OC)CN(CCc1ccc(NC(=O)c3ccc(Cl)cc3NC(=O)c3cnc4ccccc4c3)cc1)CC2 [Compound 40, Quinoline-3-carboxylic acid (2-{4-[2-(6,7-dimethoxy-3,4-dihydro-1H-isoquinolin-2-yl)-ethyl]-phenylcarbamoyl}-5-chloro-phenyl)-amide]
- IC50 (AR 1.0 cells): 40 nM

SMILES: COc1cc2c(cc1OC)CN(CCc1ccc(NC(=O)c3ccc([N+](=O)[O-])cc3NC(=O)c3cnc4ccccc4c3)cc1)CC2 [Compound 36, Quinoline-3-carboxylic acid (2-{4-[2-(6,7-dimethoxy-3,4-dihydro-1H-isoquinolin-2-yl)-ethyl]-phenylcarbamoyl}-5-nitro-phenyl)-amide]
- IC50 (AR 1.0 cells): 3.8 nM

From patent publication US7524861B2, “Process for the preparation of a hydrate of an anthranilic acid derivative” (priority 2002, dated 2009)
